In the NIST ThermoML archive (doi:10.1016/j.jct.2006.11.014):
± gives the expanded uncertainty stated by the source.

Experiments:
[1] = an = ratio of the nth substance listed; details: 298.15 K, 101 kPa, Liquid
[2] = cn = amount concentration of the nth substance listed, in mol/dm3; details: 298.15 K, 101 kPa, Liquid

`O=C1CNC(=O)CN1` [2,5-diketopiperazine] + O showed a mass density ([1]; a1 = 0.0003) of 997.17 ± 0.29 kg/m3, a mass density ([1]; a1 = 0.0007) of 997.34 ± 0.29 kg/m3 and a mass density ([1]; a1 = 0.0009) of 997.37 ± 0.29 kg/m3. It also gave a mass density ([1]; a1 = 0.0026) of 997.92 ± 0.29 kg/m3, a mass density ([1]; a1 = 0.0053) of 998.93 ± 0.28 kg/m3 and a mass density ([1]; a1 = 0.0101) of 1000.34 ± 0.28 kg/m3. The mass density ([1]; a1 = 0.0134) was 1001.42 ± 0.29 kg/m3, the mass density ([1]; a1 = 0.0157) was 1002.16 ± 0.29 kg/m3 and the mass density ([1]; a1 = 0.0168) was 1002.5 ± 0.29 kg/m3.
Work on `NCC(=O)O` [2-aminoacetic acid] + O yielded a mass density ([1]; a1 = 0.1091) of 1039.02 ± 0.39 kg/m3, a mass density ([1]; a1 = 0.1535) of 1053.89 ± 0.42 kg/m3 and a mass density ([1]; a1 = 0.1933) of 1065.41 ± 0.46 kg/m3. For the same compound, the mass density ([1]; a1 = 0.2231) was 1075.18 ± 0.48 kg/m3, the mass density ([1]; a1 = 0.239) was 1079.4 ± 0.49 kg/m3 and the mass density ([1]; a1 = 0.244) was 1080.36 ± 0.5 kg/m3. For the same compound, the mass density ([1]; a1 = 0.2509) was 1082.99 ± 0.5 kg/m3.
Compound `O=C(O)CNCC(=O)O` [N-(carboxymethyl)glycine] + O has a mass density ([1]; a1 = 0.1001) of 1035.94 ± 0.32 kg/m3, a mass density ([1]; a1 = 0.1553) of 1053.34 ± 0.36 kg/m3 and a mass density ([1]; a1 = 0.193) of 1066.16 ± 0.4 kg/m3. The mass density ([1]; a1 = 0.2113) was 1072.41 ± 0.41 kg/m3, the mass density ([1]; a1 = 0.2201) was 1074.86 ± 0.42 kg/m3 and the mass density ([1]; a1 = 0.2258) was 1076.92 ± 0.42 kg/m3.
`NCC(=O)NCC(=O)NCC(=O)O` [glycylglycylglycine] + O gave a mass density ([1]; a1 = 0.0099) of 1001 ± 0.28 kg/m3, a mass density ([1]; a1 = 0.0192) of 1004.77 ± 0.29 kg/m3 and a mass density ([1]; a1 = 0.0355) of 1011.02 ± 0.31 kg/m3. For the same compound, the mass density ([1]; a1 = 0.0452) was 1014.88 ± 0.32 kg/m3, the mass density ([1]; a1 = 0.0544) was 1018.36 ± 0.33 kg/m3 and the mass density ([1]; a1 = 0.0624) was 1021.44 ± 0.34 kg/m3. The mass density ([1]; a1 = 0.0641) was 1022.05 ± 0.34 kg/m3.
Work on `NCC(=O)NCC(=O)NCC(=O)NCC(=O)O` [glycylglycylglycylglycine] + O yielded a mass density ([1]; a1 = 0.0013) of 997.73 ± 0.29 kg/m3, a mass density ([1]; a1 = 0.0023) of 998.04 ± 0.29 kg/m3 and a mass density ([1]; a1 = 0.0031) of 998.3 ± 0.29 kg/m3. It also gave a mass density ([1]; a1 = 0.0033) of 998.38 ± 0.29 kg/m3, a mass density ([1]; a1 = 0.0036) of 998.49 ± 0.29 kg/m3 and a mass density ([1]; a1 = 0.0038) of 998.55 ± 0.28 kg/m3. For the same compound, the mass density ([1]; a1 = 0.0039) was 998.59 ± 0.28 kg/m3.
In the case of `[Br-].[K+]` [potassium bromide] + O, the mass density ([2]; c1 = 1) is reported as 1080.52 ± 0.42 kg/m3, the mass density ([2]; c1 = 2) is reported as 1162.26 ± 0.63 kg/m3 and the mass density ([2]; c1 = 4) is reported as 1323.4 ± 1.1 kg/m3.
With `[Cl-].[K+]` [potassium chloride] + O the mass density ([2]; c1 = 1) was 1042.84 ± 0.32 kg/m3, the mass density ([2]; c1 = 2) was 1082.33 ± 0.42 kg/m3 and the mass density ([2]; c1 = 4) was 1168.97 ± 0.63 kg/m3.
For `CC(=O)[O-].[K+]` [potassium ethanoate] + O, the mass density ([2]; c1 = 1) was 1043.58 ± 0.32 kg/m3, the mass density ([2]; c1 = 2) was 1087.93 ± 0.43 kg/m3 and the mass density ([2]; c1 = 4) was 1170.95 ± 0.64 kg/m3.
